Source: patent US20080200454A1, “CARBON-LINKED TETRAHYDRO-PYRAZOLO-PYRIDINE MODULATORS OF CATHEPSIN S” (priority 2007, published 2008)
Read-outs that look alike come from different tables or passages of the source.

Biological target: Recombinant human cathepsin S (CatS) (Homo sapiens, UniProt P25774)
Assay: Recombinant human cathepsin S (CatS) inhibition assay, fluorogenic substrate Z-Valine-Valine-Arginine-AMC;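 note: Baculovirus-expressed CatS in pH 5.0 sodium acetate buffer with DTT and NaCl, fluorescence read each minute over 20 min, inhibition derived from rate slope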
Experimental: Recombinant human cathepsin S (CatS) was expressed in the baculovirus system and purified in one step with a thiopropyl-sepharose column. 10-L yielded ˜700 mg of CatS and N-terminal sequencing confirmed identity. The assay is run in 150 mM sodium acetate pH 5.0 containing 1.5 mM DTT and 150 mM NaCl. […] Using 2 ng/well of CatS, the production of product is linear and yields-7-fold signal after 20 min with only 20% loss of substrate. Measurements are taken every min for 20 min. The rate is calculated from the slope of the increase in fluorescence and the percent inhibition is calculated from this.

Sequence of Recombinant human cathepsin S (CatS) (P25774 115-331): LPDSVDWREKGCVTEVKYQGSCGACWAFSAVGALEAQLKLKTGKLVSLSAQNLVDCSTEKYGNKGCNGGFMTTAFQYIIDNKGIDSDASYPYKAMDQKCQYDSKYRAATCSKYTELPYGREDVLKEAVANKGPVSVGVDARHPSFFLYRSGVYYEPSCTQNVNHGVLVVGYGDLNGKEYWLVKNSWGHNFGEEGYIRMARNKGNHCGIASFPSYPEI

Structure (SMILES) | IC50 (CatS IC50) [nM] | IC50 [nM]
CS(=O)(=O)N1CCc2c(c(-c3ccc(Cl)c(C#Cc4cccc(CNc5ccccc5)c4)c3)nn2CCCN2CCOCC2)C1 [Example 511, N-{[3-({2-Chloro-5-[5-(methylsulfonyl)-1-(3-morpholin-4-ylpropyl)-4,5,6,7-tetrahydro-1H-pyrazolo[4,3-c]pyridin-3-yl]phenyl}ethynyl)phenyl]methyl}aniline] | 1610 | –
C[C@H]1COCCN1CCCn1nc(-c2ccc(Cl)c(C#Cc3ccc4c(c3)CCN(C3CC3)C4)c2)c2c1CCN(S(C)(=O)=O)C2 [Example 512, 6-({2-Chloro-5-[1-{3-[(3S)-3-methylmorpholin-4-yl]propyl}-5-(methylsulfonyl)-4,5,6,7-tetrahydro-1H-pyrazolo[4,3-c]pyridin-3-yl]phenyl}ethynyl)-2-cyclopropyl-1,2,3,4-tetrahydroisoquinoline] | 220 | –
NC(=O)N1CCc2c(c(-c3ccc(Cl)c(C#Cc4cccc(CNCc5ccccc5Cl)c4)c3)nn2CCCN2CCSCC2)C1 [Example 513, 3-(4-Chloro-3-{[3-({[(2-chlorophenyl)methyl]amino}methyl)phenyl]ethynyl}phenyl)-1-(3-thiomorpholin-4-ylpropyl)-1,4,6,7-tetrahydro-5H-pyrazolo[4,3-c]pyridine-5-carboxamide] | – | 230
NC(=O)N1CCc2c(c(-c3ccc(Cl)c(C#Cc4cccc(CNCc5cccc(Cl)c5)c4)c3)nn2CCCN2CCSCC2)C1 [Example 514, 3-(4-Chloro-3-{[3-({[(3-chlorophenyl)methyl]amino}methyl)phenyl]ethynyl}phenyl)-1-(3-thiomorpholin-4-ylpropyl)-1,4,6,7-tetrahydro-5H-pyrazolo[4,3-c]pyridine-5-carboxamide] | 140 | –
NC(=O)N1CCc2c(c(-c3ccc(Cl)c(C#Cc4cccc(CNCc5ccccc5F)c4)c3)nn2CCCN2CCSCC2)C1 [Example 515, 3-(4-Chloro-3-{[3-({[(2-fluorophenyl)methyl]amino}methyl)phenyl]ethynyl}phenyl)-1-(3-thiomorpholin-4-ylpropyl)-1,4,6,7-tetrahydro-5H-pyrazolo[4,3-c]pyridine-5-carboxamide] | 250 | –
NC(=O)N1CCc2c(c(-c3ccc(Cl)c(C#Cc4cccc(CNCc5ccc(F)cc5)c4)c3)nn2CCCN2CCSCC2)C1 [Example 517, 3-(4-Chloro-3-{[3-({[(4-fluorophenyl)methyl]amino}methyl)phenyl]ethynyl}phenyl)-1-(3-thiomorpholin-4-ylpropyl)-1,4,6,7-tetrahydro-5H-pyrazolo[4,3-c]pyridine-5-carboxamide] | 190 | –
CN1CCc2cc(C#Cc3cc(-c4nn(CCCN5CCOCC5)c5c4CN(S(C)(=O)=O)CC5)ccc3Cl)ccc2C1 [Example 518, 6-({2-Chloro-5-[5-(methylsulfonyl)-1-(3-morpholin-4-ylpropyl)-4,5,6,7-tetrahydro-1H-pyrazolo[4,3-c]pyridin-3-yl]phenyl}ethynyl)-2-methyl-1,2,3,4-tetrahydroisoquinoline] | 390 | –
C[C@H]1COCCN1CCCn1nc(-c2ccc(Cl)c(C#Cc3ccc4c(c3)CCN(C)C4)c2)c2c1CCN(S(C)(=O)=O)C2 [Example 519, 6-({2-Chloro-5-[1-{3-[(3S)-3-methylmorpholin-4-yl]propyl}-5-(methylsulfonyl)-4,5,6,7-tetrahydro-1H-pyrazolo[4,3-c]pyridin-3-yl]phenyl}ethynyl)-2-methyl-1,2,3,4-tetrahydroisoquinoline] | 400 | –
CC(C)CNCc1cccc(C#Cc2cc(-c3nn(CCCN4CCOCC4)c4c3CN(S(C)(=O)=O)CC4)ccc2Cl)c1 [Example 520, N-{[3-({2-Chloro-5-[5-(methylsulfonyl)-1-(3-morpholin-4-ylpropyl)-4,5,6,7-tetrahydro-1H-pyrazolo[4,3-c]pyridin-3-yl]phenyl}ethynyl)phenyl]methyl}-2-methylpropan-1-amine] | 440 | –
CS(=O)(=O)N1CCc2c(c(-c3ccc(Cl)c(C#Cc4cccc(CNCc5cccnc5)c4)c3)nn2CCCN2CCOCC2)C1 [Example 521, 1-[3-({2-Chloro-5-[5-(methylsulfonyl)-1-(3-morpholin-4-ylpropyl)-4,5,6,7-tetrahydro-1H-pyrazolo[4,3-c]pyridin-3-yl]phenyl}ethynyl)phenyl]-N-(pyridin-3-ylmethyl)methanamine] | 370 | –
CS(=O)(=O)N1CCc2c(c(-c3ccc(Cl)c(C#Cc4cccc(CNCc5ccncc5)c4)c3)nn2CCCN2CCOCC2)C1 [Example 522, 1-[3-({2-Chloro-5-[5-(methylsulfonyl)-1-(3-morpholin-4-ylpropyl)-4,5,6,7-tetrahydro-1H-pyrazolo[4,3-c]pyridin-3-yl]phenyl}ethynyl)phenyl]-N-(pyridin-4-ylmethyl)methanamine] | 330 | –
CC(C)CN1CCc2cc(C#Cc3cc(-c4nn(CCCN5CCOCC5)c5c4CN(S(C)(=O)=O)CC5)ccc3Cl)ccc2C1 [Example 523, 6-({2-Chloro-5-[5-(methylsulfonyl)-1-(3-morpholin-4-ylpropyl)-4,5,6,7-tetrahydro-1H-pyrazolo[4,3-c]pyridin-3-yl]phenyl}ethynyl)-2-(2-methylpropyl)-1,2,3,4-tetrahydroisoquinoline] | 530 | –
CS(=O)(=O)c1ccc(CNCc2cccc(C#Cc3cc(-c4nn(CCCN5CCOCC5)c5c4CN(S(C)(=O)=O)CC5)ccc3Cl)c2)cc1 [Example 524, 1-[3-({2-Chloro-5-[5-(methylsulfonyl)-1-(3-morpholin-4-ylpropyl)-4,5,6,7-tetrahydro-1H-pyrazolo[4,3-c]pyridin-3-yl]phenyl}ethynyl)phenyl]-N-{[4-(methylsulfonyl)phenyl]methyl}methanamine] | 530 | –
CC(C)(C)OC(=O)N1CCc2cc(C#Cc3cc(-c4nn(CCCN5CCOCC5)c5c4CN(S(C)(=O)=O)CC5)ccc3Cl)ccc2C1=O [Example 525, 1,1-Dimethylethyl 6-({2-chloro-5-[5-(methylsulfonyl)-1-(3-morpholin-4-ylpropyl)-4,5,6,7-tetrahydro-1H-pyrazolo[4,3-c]pyridin-3-yl]phenyl}ethynyl)-1-oxo-3,4-dihydroisoquinoline-2(1H)-carboxylate] | – | 350
CCOC(=O)CN1CCc2cc(C#Cc3cc(-c4nn(CCCN5CCOCC5)c5c4CN(S(C)(=O)=O)CC5)ccc3Cl)ccc2C1 [Example 526, Ethyl [6-({2-chloro-5-[5-(methylsulfonyl)-1-(3-morpholin-4-ylpropyl)-4,5,6,7-tetrahydro-1H-pyrazolo[4,3-c]pyridin-3-yl]phenyl}ethynyl)-3,4-dihydroisoquinolin-2(1H)-yl]acetate] | 370 | –
C=CCN1CCc2cc(C#Cc3cc(-c4nn(CCCN5CCOCC5)c5c4CN(S(C)(=O)=O)CC5)ccc3Cl)ccc2C1 [Example 527, 6-({2-Chloro-5-[5-(methylsulfonyl)-1-(3-morpholin-4-ylpropyl)-4,5,6,7-tetrahydro-1H-pyrazolo[4,3-c]pyridin-3-yl]phenyl}ethynyl)-2-prop-2-en-1-yl-1,2,3,4-tetrahydroisoquinoline] | 300 | –
CN(Cc1ccccc1)Cc1cccc(C#Cc2cc(-c3nn(CCCN4CCOCC4)c4c3CN(S(C)(=O)=O)CC4)ccc2Cl)c1 [Example 528, 1-[3-({2-Chloro-5-[5-(methylsulfonyl)-1-(3-morpholin-4-ylpropyl)-4,5,6,7-tetrahydro-1H-pyrazolo[4,3-c]pyridin-3-yl]phenyl}ethynyl)phenyl]-N-methyl-N-(phenylmethyl)methanamine] | 580 | –
C[C@H]1COCCN1C[C@@H](O)Cn1nc(-c2ccc(Cl)c(C#Cc3ccc(CNCc4ccc(Cl)cc4)cc3)c2)c2c1CCN(S(C)(=O)=O)C2 [Example 529, (2R)-1-[3-(4-Chloro-3-{[4-({[(4-chlorophenyl)methyl]amino}methyl)phenyl]ethynyl}phenyl)-5-(methylsulfonyl)-4,5,6,7-tetrahydro-1H-pyrazolo[4,3-c]pyridin-1-yl]-3-[(3S)-3-methylmorpholin-4-yl]propan-2-ol] | 120 | –
CN(Cc1ccccc1)Cc1cccc(CCc2cc(-c3nn(CCCN4CCOCC4)c4c3CN(S(C)(=O)=O)CC4)ccc2Cl)c1 [Example 530, 1-[3-(2-{2-Chloro-5-[5-(methylsulfonyl)-1-(3-morpholin-4-ylpropyl)-4,5,6,7-tetrahydro-1H-pyrazolo[4,3-c]pyridin-3-yl]phenyl}ethyl)phenyl]-N-methyl-N-(phenylmethyl)methanamine] | – | 1330
CC(C)CNCc1cccc(CCc2cc(-c3nn(CCCN4CCOCC4)c4c3CN(S(C)(=O)=O)CC4)ccc2Cl)c1 [Example 531, N-{[3-(2-{2-Chloro-5-[5-(methylsulfonyl)-1-(3-morpholin-4-ylpropyl)-4,5,6,7-tetrahydro-1H-pyrazolo[4,3-c]pyridin-3-yl]phenyl}ethyl)phenyl]methyl}-2-methylpropan-1-amine] | 640 | –
Cc1ccccc1CNCc1ccc(C#Cc2cc(-c3nn(CCCN4CCSCC4)c4c3CN(C(N)=O)CC4)ccc2Cl)cc1 [Example 532, 3-(4-Chloro-3-{[4-({[(2-methylphenyl)methyl]amino}methyl)phenyl]ethynyl}phenyl)-1-(3-thiomorpholin-4-ylpropyl)-1,4,6,7-tetrahydro-5H-pyrazolo[4,3-c]pyridine-5-carboxamide] | 90 | –
COc1ccccc1CNCc1ccc(C#Cc2cc(-c3nn(CCCN4CCSCC4)c4c3CN(C(N)=O)CC4)ccc2Cl)cc1 [Example 533, 3-[4-Chloro-3-({4-[({[2-(methyloxy)phenyl]methyl}amino)methyl]phenyl}ethynyl)phenyl]-1-(3-thiomorpholin-4-ylpropyl)-1,4,6,7-tetrahydro-5H-pyrazolo[4,3-c]pyridine-5-carboxamide] | 100 | –
COc1cccc(CNCc2ccc(C#Cc3cc(-c4nn(CCCN5CCSCC5)c5c4CN(C(N)=O)CC5)ccc3Cl)cc2)c1 [Example 534, 3-[4-Chloro-3-({4-[({[3-(methyloxy)phenyl]methyl}amino)methyl]phenyl}ethynyl)phenyl]-1-(3-thiomorpholin-4-ylpropyl)-1,4,6,7-tetrahydro-5H-pyrazolo[4,3-c]pyridine-5-carboxamide] | 90 | –
